Values of other authors as cited in US20240165081A1, “COMPOSITIONS AND METHODS FOR TREATMENT OF INSOMNIA” (priority 2022, published 2024).

Biological target: adenosine A2A receptor (Homo sapiens, UniProt P29274)
Sequence (P29274 whole entry): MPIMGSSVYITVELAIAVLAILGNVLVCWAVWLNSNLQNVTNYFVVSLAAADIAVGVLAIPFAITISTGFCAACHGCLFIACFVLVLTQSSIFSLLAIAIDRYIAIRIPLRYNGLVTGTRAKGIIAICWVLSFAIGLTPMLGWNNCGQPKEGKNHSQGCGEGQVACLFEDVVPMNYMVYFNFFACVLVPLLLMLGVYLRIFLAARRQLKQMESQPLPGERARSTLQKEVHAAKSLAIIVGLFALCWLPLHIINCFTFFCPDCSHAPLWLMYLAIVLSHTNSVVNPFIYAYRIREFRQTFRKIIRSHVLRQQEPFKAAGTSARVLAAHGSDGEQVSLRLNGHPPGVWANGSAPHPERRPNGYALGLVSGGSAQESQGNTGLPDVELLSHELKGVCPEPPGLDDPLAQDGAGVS

## C=C(C)C1CC=C(C)CC1 [D-limonene, 4-isopropenyl-1-methylcyclohexene]
  binding to the adenosine A2A receptor: found to bind to the adenosine A2A receptor
